In the assay the test system is male broiler chickens (Cobb 500). The assay is described as follows: Experiment in vivo 1: apparent ileal digestibility of crude protein, fat and energy. The note with it: supplemented feed: B Zn-Bacitracin 50 mg/kg; C Muramidase 40 000 U/g; Cobb 500 broilers. An excerpt: Day-old male broiler chickens (Cobb 500) were supplied by a commercial hatchery (Joseph Grelier S. A., Elevage avicole de la Bohadière, F-49290 Saint-Laurent de la Plaine, France).
On the day of arrival (day 1), the chickens were divided by weight into groups of 18 birds. Each group was placed in one floor-pen littered with wood shavings and allocated to one of the different treatments.
Each treatment was replicated with 12 groups. The chickens were housed in an environmentally controlled room. The room temperature was adapted to the age of the birds. In the first few days an additional infra-red electric heating lamp was placed in each pen. Moreover, in the first week feed was offered to the birds as crumbled pellets, afterwards as pelleted feed. The birds had free access to feed and water.
The experimental diets (Starter and Grower) were based on soybean meal, wheat and rye (12%) as main ingredients (Table 2). The diets were formulated to contain 210 g crude protein and 12.5 MJ/kg MEN for the starter period and 190 g crude protein and 12.9 MJ/kg MEN for the grower period.
The diets were fed either unsupplemented (negative control) or supplemented with Muramidase and Zn-Bacitracin as follows:
Appropriate amount of the solid product (Zn-Bacitracin) was mixed with a small quantity of the basal feed as a premix which was then added to the feed to get the final concentration, according to the treatments. After mixing the feed was pelleted (3×25 mm) at about 70° C.
Appropriate amount of the liquid preparations of Muramidase was diluted in water and sprayed onto the respective pelleted feed to get the final concentrations in the feed corresponding to the different treatments. For procedural balance of all treatments the same volume of water were also sprayed onto the pellets of the control diets. […]
Energy determinations were performed using an IKA®-Werke calorimeter (C 2000 basic). TiO2 concentration in feed and digesta were determined by Induction Coupled Plasma (ICP) according to DIN EN ISO 11885:1997 (DIN EN ISO 1998) after H2SO4/Na2SO4 mineralization. […]

Results on 1 substance are retold here after US20200337337A1, “ANIMAL FEED COMPOSITIONS COMPRISING MURAMIDASE AND USES THEREOF” (DSM IP ASSETS B.V., priority 2017, published 2020).

Marks after values point to notes of the source that are not given here.

Zn-Bacitracin: the “Apparent ileal digestibility Energy (%)” value is listed as 90.1^a %, the “Apparent ileal digestibility Fat (%)” value is listed as 82.2^a % and the “Apparent ileal digestibility Protein (%)” value was 76.3^a %.
